In patent publication US10030027B2, “Soluble guanylate cyclase stimulators” (MERCK SHARP & DOHME CORP., priority 2015, dated 2018):

What was measured:
[1] = target: sGC α1/β1 heterodimer (Homo sapiens (Human), UniProt Q02108+Q02153); test: Cell-based sGC functional assay (cyclic GMP assay for sGC activator: CASA assay); design: % Activation: concentration or dose not given beside the values; details: CHO-K1/sGC cells; for Emax: CHO-K1, activity expressed as percentage of compound A (standard), read-out: % Activation; for EC50: inflection point, 4P fit, read-out: IP
In short: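 CHO-K1 cells stably expressing human sGC α1/β1 were pre-incubated 30 min at 25° C with or without 1 μM DETA-NO, then exposed to compound for 1 hr at 37° C with 0.5 mM IBMX and 2.5% DMSO final. Intracellular cGMP was measured by HTRF, expressed as % of reference sGC-HDA maximum; inflection point and maximum fold induction came from 4-parameter fits.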

[2] = target: human recombinant sGC enzyme (Homo sapiens (Human), UniProt Q02108+Q02153); test: Size Exclusion Chromatography (SEC) competition binding assay using [3H] Ex-77B as the radioligand; details: [3H] Ex-77B radioligand, 24 hours at 37° C.
In short: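 Recombinant human sGC binding measured by competition against tritiated Ex-77B radioligand, with non-specific binding defined by 1 μM unlabeled Ex-77B.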

Compound	Emax [1] [%]	EC50 [1] [nM]	Ki [2] [nM]	% Activation ([1]; activity expressed as percentage of compound A (standard)) [%]
CC1(c2ccnc(C(=O)O)c2)C(=O)Nc2nc(-c3nn(Cc4ccccc4F)c4cc(Cl)ccc34)nc(N)c21 (stereo not drawn) [Example 143B, 4-{4-amino-2-[6-chloro-1-(2-fluoro-benzyl)-1H-indazol-3-yl]-5-methyl-6-oxo-6,7-dihydro-5H-pyrrolo[2,3-d]pyrimidin-5-yl} pyridine-2-carboxylic acid]	76.1	3380	0.174	
CC1(c2ccc(/C=C/C(=O)O)cc2)C(=O)Nc2nc(-c3nn(Cc4ccccc4F)c4ncccc34)nc(N)c21 (stereo not drawn) [Example 217A, (2E)-3-(4-{4-amino-2-[1-(2-fluorobenzyl)-1H-pyrazolo[3,4-b]pyridin-3-yl]-5-methyl-6-oxo-6,7-dihydro-5H-pyrrolo[2,3-d]pyrimidin-5-yl}phenyl)prop-2-enoic acid]	124	1420	0.067	
CC1(c2ccc(Cc3nn[nH]n3)cc2)C(=O)Nc2nc(-c3nn(Cc4ccccc4F)c4cc(Cl)ccc34)nc(N)c21 (stereo not drawn) [Example 244A, 5-{4-[(2H-tetrazol-5-yl)methyl]phenyl}-4-amino-2-[6-chloro-2-(2-fluorobenzyl)-1H-indazol-3-yl]-5-methyl-5,7-dihydro-6H-pyrrolo[2,3-d] pyrimidin-6-one]	93.3	2730	0.063	
C[C@@]1(c2ccc(CCC(=O)O)cc2)C(=O)Nc2nc(-c3nn(CCCC(F)(F)F)c4ncccc34)nc(N)c21 [Example 15B, (S)-3-(4-{4-amino-5-methyl-6-oxo-2-[1-(4,4,4-trifluorobutyl)-1H-pyrazolo[3,4-b]pyridin-3-yl]-6,7-dihydro-5H-pyrrolo[2,3-d]pyrimidin-5-yl}phenyl)propanoic acid]	95	1320	0.455	
Cc1cccc(Cn2nc(-c3nc(N)c4c(n3)NC(=O)[C@@]4(C)c3nc(CC(C)(C)C(=O)O)cs3)c3ccc(Cl)cc32)c1F [Example 188A, (S)-3-(2-{4-amino-2-[6-chloro-1-(2-fluoro-3-methyl-benzyl)-1H-indazol-3-yl]-5-methyl-6-oxo-6,7-dihydro-5H-pyrrolo[2,3-d]pyrimidin-5-yl}-1,3-thiazol-4-yl)-2,2-dimethyl-propanoic acid]	124	109	0.1	
CC1(c2cccc(-c3nn[nH]n3)n2)C(=O)Nc2nc(-c3nn(Cc4ccccc4F)c4cc(Cl)ccc34)nc(N)c21 (single isomer, unassigned) [Example 253A, 5-[6-(2H-tetrazol-5-yl)pyridin-2-yl]-4-amino-2-[6-chloro-1-(2-fluorobenzyl)-1H-indazol-3-yl]-5-methyl-5,7-dihydro-6H-pyrrolo[2,3-d] pyrimidin-6-one]		3630	0.146	
CC(C)(Cc1csc([C@]2(C)C(=O)Nc3nc(-c4nn(Cc5c(F)ccc(F)c5F)c5ccccc45)nc(N)c32)n1)C(=O)O [Example 224A, (S)-3-(2-{4-amino-5-methyl-6-oxo-2-[1-(2,3,6-trifluorobenzyl)-1H-indazol-3-yl]-6,7-dihydro-5H-pyrrolo[2,3-d]pyrimidin-5-yl}-1,3-thiazol-4-yl)-2,2-dimethyl-propanoic acid]	111	14	0.067	
CC(C)(CCc1coc(C2(C)C(=O)Nc3nc(-c4nn(Cc5cccc(F)c5)c5cc(Cl)ccc45)nc(N)c32)n1)C(=O)O (stereo not drawn) [Example 177B, 4-(2-{4-amino-2-[6-chloro-1-(3-fluorobenzyl)-1H-indazol-3-yl]-5-methyl-6-oxo-6,7-dihydro-5H-pyrrolo[2,3-d]pyrimidin-5-yl}-1,3-oxazol-4-yl)-2,2-dimethyl-butanoic acid]	126	351	0.118	
CC(C)(Cc1coc(C2(C)C(=O)Nc3nc(-c4nn(Cc5ccc(F)cc5F)c5cc(Cl)ccc45)nc(N)c32)n1)C(=O)O (stereo not drawn) [Example 178A, 3-(2-{4-amino-2-[6-chloro-1-(2,4-difluorobenzyl)-1H-indazol-3-yl]-5-methyl-6-oxo-6,7-dihydro-5H-pyrrolo[2,3-d]pyrimidin-5-yl}-1,3-oxazol-4-yl)-2,2-dimethyl-propanoic acid]	124	429	0.116	
CC(C)(Cc1csc([C@]2(C)C(=O)Nc3nc(-c4nn(CC5CCCC5)c5ncccc45)nc(N)c32)n1)C(=O)O (single isomer, unassigned) [Example 153A]	119	145	0.118	
CC1(c2nc(CC(=O)O)co2)C(=O)Nc2nc(-c3nn(Cc4ccccc4F)c4ccccc34)nc(N)c21 (stereo not drawn) [Example 203A, (2-{4-amino-2-[1-(2-fluorobenzyl)-1H-indazol-3-yl]-5-methyl-6-oxo-6,7-dihydro-5H-pyrrolo[2,3-d]pyrimidin-5-yl}-1,3-oxazol-4-yl)acetic acid]	122	330	0.071	
CC(C)(Cc1csc([C@]2(C)C(=O)Nc3nc(-c4nn(CC5CCCCO5)c5cc(F)ccc45)nc(N)c32)n1)C(=O)O (single isomer, unassigned) [Example 133AB]		714	0.359	111.4
CC(C)(Cc1nc(C2(C)C(=O)Nc3nc(-c4nn(Cc5ccccc5F)c5cc(Cl)ccc45)nc(N)c32)cs1)C(=O)O (stereo not drawn) [Example 142B, 3-(4-{4-amino-2-[6-chloro-1-(2-fluoro-benzyl)-1H-indazol-3-yl]-5-methyl-6-oxo-6,7-dihydro-5H-pyrrolo[2,3-d]pyrimidin-5-yl}-1,3-thiazol-2-yl)-2,2-dimethyl-propanoic acid]	109	264	0.183	
CC1(c2ccc(CCC(=O)O)c(O)c2)C(=O)Nc2nc(-c3nn(CCC(F)(F)C(F)(F)F)c4cc(Cl)ccc34)nc(N)c21 (stereo not drawn) [Example 122B, 3-(4-{4-Amino-2-[6-chloro-1-(3,3,4,4,4-pentafluorobutyl)-1H-indazol-3-yl]-5-methyl-6-oxo-6,7-dihydro-5H-pyrrolo[2,3-d]pyrimidin-5-yl}-2-hydroxyphenyl)propanoic acid]	115	895	0.326	
CC(C)(Cc1csc([C@]2(C)C(=O)Nc3nc(-c4nn(Cc5cccc(F)c5)c5ncccc45)nc(N)c32)n1)C(=O)O [Example 149A, (S)-3-(2-{4-amino-2-[1-(3-fluoro-benzyl)-1H-pyrazolo [3,4-b]pyridin-3-yl]-5-methyl-6-oxo-6,7-dihydro-5H-pyrrolo[2,3-d]pyrimidin-5-yl}-1,3-thiazol-4-yl)-2,2-dimethyl-propanoic acid]	103	111	0.167	
CC1(c2cn(C(C)(C)C(=O)O)nn2)C(=O)Nc2nc(-c3nn(Cc4ccccc4F)c4cc(Cl)ccc34)nc(N)c21 (single isomer, unassigned) [Example 141A, 2-(4-{4-Amino-2-[6-chloro-1-(2-fluorobenzyl)-1H-indazol-3-yl]-5-methyl-6-oxo-6,7-dihydro-5H-pyrrolo[2,3-d]pyrimidin-5-yl}-1H-1,2,3-triazol-1-yl)-2-methylpropanoic acid]		193	0.665	
CCCCn1nc(-c2nc(N)c3c(n2)NC(=O)C3(C)c2cn(CCC(=O)O)nn2)c2ccc(Cl)cc21 (stereo not drawn) [Example 36B, 3-{4-[4-amino-2-(1-butyl-6-chloro-1H-indazol-3-yl)-5-methyl-6-oxo-6,7-dihydro-5H-pyrrolo[2,3-d]pyrimidin-5-yl]-1H-1,2,3-triazol-1-yl}propanoic acid]	105	916	0.908	
CC(C)(CCc1coc(C2(C)C(=O)Nc3nc(-c4nn(Cc5cccc(F)c5)c5cc(F)ccc45)nc(N)c32)n1)C(=O)O (stereo not drawn) [Example 197B, 4-(2-{4-amino-2-[6-fluoro-1-(3-fluorobenzyl)-1H-indazol-3-yl]-5-methyl-6-oxo-6,7-dihydro-5H-pyrrolo[2,3-d]pyrimidin-5-yl}-1,3-oxazol-4-yl)-2,2-dimethyl-butanoic acid]	106	125	0.162	
CCCCn1nc(-c2nc(N)c3c(n2)NC(=O)[C@@]3(C)c2ccc(CCC(=O)O)cc2)c2ccc(C)nc21 [Example 111B, (S)-3-{4-{4-amino-2-(1-butyl-6-methyl-1H-pyrazolo[3,4-b]pyridin-3-yl)-5-methyl-6-oxo-6,7-dihydro-5H-pyrrolo[2,3-d]pyrimidin-5-yl}phenyl}propanoic acid]	86	9250	1.11	
CC1(c2cccc(-c3nn[nH]n3)c2)C(=O)Nc2nc(-c3nn(CCC(F)(F)C(F)(F)F)c4ncccc34)nc(N)c21 (single isomer, unassigned) [Example 252B, 4-amino-5-methyl-2-[1-(3,3,4,4,4-pentafluorobutyl)-1H-pyrazolo[3,4-b]pyridin-3-yl]-5-[3-(2H-tetrazol-5-yl)phenyl]-5,7-dihydro-6H-pyrrolo[2,3-d] pyrimidin-6-one]		2460	0.292	
CC1(c2cn(CC(=O)O)nn2)C(=O)Nc2nc(-c3nn(CCC(F)(F)C(F)(F)F)c4cc(Cl)ccc34)nc(N)c21 (stereo not drawn) [Example 28B, (4-{4-amino-2-[6-chloro-1-(3,3,4,4,4-pentafluorobutyl)-1H-indazol-3-yl]-5-methyl-6-oxo-6,7-dihydro-5H-pyrrolo[2,3-d]pyrimidin-5-yl}-1H-1,2,3-triazol-1-yl)acetic acid]	105	2170	0.536	
